Measured values taken from PMC11358017, “Nucleotide metabolism in cancer cells fuels a UDP-driven macrophage cross-talk, promoting immunosuppression and immunotherapy resistance” (Nature Cancer, 2024).

Biological target: T1, P2Y6 (P2ry6^WT BMDMs) (Mus musculus, UniProt Q9ERK9)
T1 construct: native full-length receptor, endogenous in mouse bone marrow-derived macrophages (BMDMs); no tag
Test: Fura-2 intracellular calcium response, BMDMs, Hill fit
Assay type: cell-based
Conditions: agonist, native mouse BMDMs, peak F340/F380 normalized to ionomycin, pH 7.4, response absent in P2ry6^ΔMy BMDMs

T1 sequence (Q9ERK9 whole entry): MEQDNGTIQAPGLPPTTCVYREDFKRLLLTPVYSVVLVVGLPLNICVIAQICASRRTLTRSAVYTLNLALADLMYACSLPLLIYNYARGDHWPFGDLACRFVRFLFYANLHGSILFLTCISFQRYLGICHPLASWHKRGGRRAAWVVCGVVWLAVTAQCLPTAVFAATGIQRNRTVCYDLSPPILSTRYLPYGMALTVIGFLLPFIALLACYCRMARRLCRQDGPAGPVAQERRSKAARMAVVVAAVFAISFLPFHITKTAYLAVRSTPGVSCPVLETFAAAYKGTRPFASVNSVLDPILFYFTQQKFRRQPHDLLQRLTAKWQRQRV

| SMILES | EC50 (n = 6, possible conversion to UDP by ectonucleotidases) [nM] | EC50 (n = 3) [nM] |
| --- | --- | --- |
| O=c1ccn([C@@H]2O[C@H](COP(=O)(O)OP(=O)(O)OP(=O)(O)O)[C@@H](O)[C@H]2O)c(=O)[nH]1 [UTP] | 103 ± 12 | – |
| O=c1ccn([C@@H]2O[C@H](COP(=O)(O)OP(=O)(O)O)[C@@H](O)[C@H]2O)c(=O)[nH]1 [UDP] | – | 42 ± 5 |
